Measured values published in patent US20200129511A1, “COMPOUNDS AND METHODS FOR TREATMENT OF NAFLD AND NASH” (Arena Pharmaceuticals, Inc., priority 2017, published 2020).
“Also recorded” adds a separate entry of the source.

Columns and labels:
dog = details: 7-day
male C57bl/6j mice = assay: oral glucose tolerance test (oGTT) in normal lean mice; format: in vivo, mouse; details: 1 mg/kg and 10 mg/kg p.o.
Procedure: (§1) Animals were grouped in regular cages (rats 2/cage, mice 4/cage) with bedding under normal light conditions (lights on 6:30 am-6:30 pm). They were given ad libitum access to food and water. Animals were allowed to acclimate to the facility for several days before handling.
Mouse: Following 2 handling sessions, animals were fasted for 3-16 h.
The oral glucose tolerance test (oGTT) was executed as follows: Compound was administered 0-30 min prior to first blood sample. At time 0, a tail nick and glucose test was performed with a hand-held glucometer, then a bolus of glucose ([…], p.o.) was administered. Glucose was again tested at 20, 40, 60, and 120 minutes post glucose administration. During the entire oGTT, a total volume of approximately 10 drops of blood was collected.

[1] = oral pharmacokinetics in mouse; format: in vivo, Male C57B1 mouse
[2] = stability in human liver microsomes; format: in vitro ADME
ZDF rat = assay: oGTT in ZDF rat; format: in vivo; details: 3 mg/kg
[3] = oral pharmacokinetics in rat; format: in vivo; details: Male Sprague-Dawley rat, 10 mg/kg, 40% HPβCD
[4] = stability in rat liver microsomes; format: in vitro ADME
rat = details: 14-day
T2DM patients = details: cited from earlier work
hERG channel = hERG channel (Homo sapiens, UniProt Q12809); assay: hERG patch clamp study; format: cell-based
hERG channel, sequence (Q12809 whole entry): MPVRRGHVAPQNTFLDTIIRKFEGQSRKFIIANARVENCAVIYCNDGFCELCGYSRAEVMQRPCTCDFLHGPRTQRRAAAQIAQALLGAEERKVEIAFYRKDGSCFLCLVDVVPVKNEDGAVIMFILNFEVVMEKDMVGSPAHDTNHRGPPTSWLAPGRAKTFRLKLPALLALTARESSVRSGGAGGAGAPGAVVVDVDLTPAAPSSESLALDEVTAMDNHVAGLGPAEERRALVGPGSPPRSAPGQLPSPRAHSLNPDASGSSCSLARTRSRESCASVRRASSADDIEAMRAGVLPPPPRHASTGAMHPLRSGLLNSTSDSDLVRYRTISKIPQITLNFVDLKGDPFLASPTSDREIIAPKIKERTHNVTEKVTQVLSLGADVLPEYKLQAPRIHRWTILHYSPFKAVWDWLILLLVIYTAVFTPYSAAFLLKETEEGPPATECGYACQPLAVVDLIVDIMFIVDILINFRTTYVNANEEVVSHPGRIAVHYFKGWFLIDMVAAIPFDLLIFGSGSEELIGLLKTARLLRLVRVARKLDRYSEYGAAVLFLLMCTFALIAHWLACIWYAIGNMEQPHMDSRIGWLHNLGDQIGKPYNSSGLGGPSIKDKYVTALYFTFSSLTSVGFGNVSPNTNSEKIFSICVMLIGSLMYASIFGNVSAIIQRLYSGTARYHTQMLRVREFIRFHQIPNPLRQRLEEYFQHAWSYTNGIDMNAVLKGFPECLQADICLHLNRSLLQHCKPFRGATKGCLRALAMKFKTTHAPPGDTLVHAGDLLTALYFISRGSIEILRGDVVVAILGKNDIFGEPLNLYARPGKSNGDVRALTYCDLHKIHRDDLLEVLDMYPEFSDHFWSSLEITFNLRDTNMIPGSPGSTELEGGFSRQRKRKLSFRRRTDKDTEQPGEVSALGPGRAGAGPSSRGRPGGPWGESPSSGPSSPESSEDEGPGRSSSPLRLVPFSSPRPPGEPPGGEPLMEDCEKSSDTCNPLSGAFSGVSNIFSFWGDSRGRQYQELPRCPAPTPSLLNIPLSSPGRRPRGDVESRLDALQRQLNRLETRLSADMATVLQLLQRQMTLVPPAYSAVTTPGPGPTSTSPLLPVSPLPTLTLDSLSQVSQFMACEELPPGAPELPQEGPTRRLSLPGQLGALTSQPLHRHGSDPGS

anesthetized Guinea Pig = assay: cardiovascular effects in the anesthetized Guinea Pig; format: in vivo; details: cumulative doses up to 5 mg/kg i.v., compared to vehicle controls
[5] = oral pharmacokinetics in dog; format: in vivo; details: Male beagle dog, 7.85 mg/kg, 100% PEG400
Sprague-Dawley rat = assay: oral glucose tolerance test (oGTT) in Sprague-Dawley rat; format: in vivo
Procedure: as §1
Rat: Animals are fasted 3-16 h.
The oral glucose tolerance test (OGTT) was executed as follows: At time minus 30 min, blood was collected via a tail nick and a glucose test performed with a hand-held glucometer, and compound was then administered. At time 0, blood was again collected for glucose reading and then a bolus of glucose (3 g/kg p.o., 6 mL/kg) administered. Blood glucose levels were further tested at 30, 60, and 120 min post glucose administration. During the entire oGTT, a total volume of approximately 8 drops of blood was collected. Rats were used twice with a one week lapse between experiments.

Cynomolgus monkey = assay: oGTT in normal cynomolgus monkey; format: in vivo; details: 3 mg/kg
[6] = test system: Male C57BL/6 mice fed high fat diet; assay: High Fat Diet (HFD) mouse model of non-alcoholic fatty liver disease; format: in vivo; details: five times per week for six weeks
Excerpt: Male C57BL/6 mice (8 weeks) were fed either normal or high fat diet (HFD) (60% TD06414, Envigo) and given water ad libitum. […] At 20 weeks, mice were sacrificed and serum plasma was collected for measurement of various biochemical parameters, including serum transaminases.

[7] = oral pharmacokinetics in monkey; format: in vivo; details: Male cynomolgus monkey, 10 mg/kg, 100% PEG400
healthy male volunteers = details: cited from earlier work
ob/ob Mice = assay: oGTT in ob/ob mice; format: in vivo, mouse; details: 3 mg/kg
Caco-2 monolayers = assay: permeability across Caco-2 monolayers; format: in vitro ADME
mice fed a high-fat diet = details: cited from earlier work
[8] = Male C57B1 mouse, 10 mg/kg, 40% HPβCD
[9] = 100 or 500 mg single-dose or 500 mg once daily for 14 days
[10] = multiple dosing, compared to baseline
[11] = Sprague-Dawley rat, 3-30 mg/kg PO
[12] = healthy male volunteers, 2.5-800 mg
[13] = oral single-dose, compared with placebo
[14] = oral administration, mice fed a high-fat diet

SMILES: COc1c(Nc2ccc(S(C)(=O)=O)nc2C)ncnc1OC1CCN(C(=O)OC(C)C)CC1 [Compound 1, 4-[6-(6-Methanesulfonyl-2-methyl-pyridin-3-ylamino)-5-methoxy-pyrimidin-4-yloxy]-piperidine-1-carboxylic acid isopropyl ester]
- preliminary safety findings (dog): no obvious liabilities
- AUCglu during oGTT (male C57bl/6j mice): significant reduction; also recorded: significant main effect
- AUCinf [1, 8]: 319.953 µg·h/mL
- Cmax [1, 8]: 25.833 µg/mL
- tmax [1, 8]: 2 h
- exposure after oral dosing ([1]; mouse): high
- t1/2 in liver microsomes [2]: > 60 min
- Compd exposure upon oGTT (ZDF rat): 1592 ± 128 ng/mL
- Blood glucose AUC (% of vehicle group) (ZDF rat; oGTT): 72.8 ± 6.3 % of vehicle group
- % F [3]: 72%
- AUCinf [3]: 12.471 µg·h/mL
- Cmax [3]: 1.39 µg/mL
- tmax [3]: 1 h
- t1/2 in liver microsomes [4]: > 60 min
- preliminary safety findings (rat): no obvious liabilities
- hypoglycemia (T2DM patients; [9]): not associated with hypoglycemia
- tolerability (T2DM patients; [9]): well tolerated
- plasma systemic exposure versus dose (T2DM patients): increased with increased dose
- post-meal gastric insulinotropic peptide concentration (T2DM patients; [10]): increased
- post-meal total glucagon-like peptide 1 concentration (T2DM patients; [10]): increased
- time to attain steady-state (T2DM patients; multiple-dose administration): approximately 8 days
- plasma systemic exposure after multiple-dose administration (T2DM patients; multiple-dose versus single-dose): approximately two-fold greater
- glucose excursion during an oral glucose tolerance test (T2DM patients; single-dose, compared with placebo): decreased
- IC50 (hERG channel): 13 ± 0.2 µM
- effects on mean arterial blood pressure (MAP), heart rate (HR) or electrocardiogram (ECG) (anesthetized Guinea Pig): did not produce any dose-related, statistically significant effects
- % F [5]: 22.1%
- AUCinf [5]: 43.743 µg·h/mL
- Cmax [5]: 1.983 µg/mL
- tmax [5]: 8 h
- Compd exposure upon oGTT (Sprague-Dawley rat; SD rats, 3 mg/kg): 482 ± 116 ng/mL
- Blood glucose AUC (% of vehicle group) (Sprague-Dawley rat; SD rats, 3 mg/kg, oGTT): 85.1 ± 1.9 % of vehicle group
- AUCglu during oGTT (Sprague-Dawley rat; [11]): markedly reduced; also recorded: significant main effect
- glucose handling (Sprague-Dawley rat; [11]): significantly improved
- Compd exposure upon oGTT (Cynomolgus monkey): 112 ± 16.9 ng/mL
- Blood glucose AUC (% of vehicle group) (Cynomolgus monkey; oGTT): 82.8 ± 1.7 % of vehicle group
- increases in serum ALT caused by high fat diet ([6]; HFD mice, 3, 10 and 30 mg/kg/day): blocked
- % F [7]: 68.8%
- AUCinf [7]: 64.18 µg·h/mL
- Cmax [7]: 4.803 µg/mL
- tmax [7]: 6 h
- hypoglycemia (healthy male volunteers; [12]): not associated with hypoglycemia
- systemic exposure in plasma versus dose (healthy male volunteers; [12]): increased in proportion to the dose
- tolerability (healthy male volunteers; [12]): well tolerated
- influence of food on systemic exposure in plasma (healthy male volunteers; healthy male volunteers, coadministration of food): not influenced by coadministration of food
- terminal elimination half-life (healthy male volunteers; healthy male volunteers, oral suspension formulation): ~13 h
- glucose excursion (healthy male volunteers; [13]): did not significantly decrease
- insulin secretion (healthy male volunteers; [13]): did not significantly decrease glucose excursion or increase insulin secretion
- postmeal plasma glucagon-like peptide 1 (GLP-1) concentration (healthy male volunteers; [13]): increased
- postmeal plasma glucose-dependent insulinotropic peptide (GIP) concentration (healthy male volunteers; [13]): increased
- postmeal plasma peptide YY (PYY) concentration (healthy male volunteers; [13]): increased
- Blood glucose AUC (% of vehicle group) (ob/ob Mice): 78.4 ± 5.1 % of vehicle group
- permeability across Caco-2 monolayers, A to B (Caco-2 monolayers; A to B): 2.6e-05 cm/s
- permeability across Caco-2 monolayers, B to A (Caco-2 monolayers; B to A): 1.5e-05 cm/s

SMILES: CCc1cnc(N2CCC(c3nc(COc4ccc(-n5cnnn5)cc4)cs3)CC2)nc1 [MBX-2982]
- hepatic antilipogenesis effects in GPR119 KO mice (mice fed a high-fat diet; GPR119 KO mice): abolished
- expression levels of SREBP-1 and lipogenesis-related genes (mice fed a high-fat diet; [14]): potently inhibited
- hepatic lipid accumulation (mice fed a high-fat diet; [14]): potently inhibited
- increases in serum ALT caused by high fat diet ([6]; HFD mice, 10 mg/kg/day): blocked by treatment with Compound 1, but not MBX-2982
